Laboratory results taken from patent publication US20230094471A1, “CYTOTOXIC BIS-BENZODIAZEPINE DERIVATIVES AND CONJUGATES THEREOF WITH CELL-BINDING AGENTS FOR INHIBITING ABNORMAL CELL GROWTH OR FOR TREATING PROLIFERATIVE DISEASES” (priority 2019, published 2023).

Legend:
[1] = tested on: Namalwa (Burkitt's lymphoma); assay: In vitro cytotoxicity assay (WST-8), Namalwa cells; details: read-out: IC50 values for free cytotoxic compounds, Namalwa
Description: (§1) The following cell lines were used for the studies: KB (cervical carcinoma, ATCC), NCI-H2110 (Non Small Cell Lung Carcinoma, ATCC), Namalwa (Burkitt's lymphoma, ATCC), and T47D (breast epithelial cancer, ATCC). The cells were maintained and plated for the cytotox experiments in media recommended by the manufacturers. Cells were plated in the 96-well flat bottom plates at a seeding density of 1,000 cells per well (KB, Namalwa) or 2,000 cell per well (NCI H2110, T47D). […] To determine specificity of cytotoxic activity of the conjugates an excess of unconjugated antibody was added to a separate set of diluted conjugates (+block samples, IC50 table). The plates were incubated at 37° C., 5% CO2 for either 4 days (T47D cells) or 5 days (KB, NCI H2110 cells). Alamar blue assay (Invitrogen) was used to determine viability of T47D cells, and WST-8 assay (Donjindo Molecular Technologies, Inc.) was applied for viability of KB, NCI H2110, Namalwa cells. The assays were performed in accordance with the manufacturer's protocols. Killing curves and IC50 were generated using a sigmoidal dose-response nonlinear regression curve fit (GraphPad Software Inc.).

KB (cervical carcinoma) = assay: In vitro cytotoxicity assay (WST-8), KB cells; details: Homo sapiens, 120 h, read-out: IC50 values for free cytotoxic compounds, KB
Description: as §1

[2] = Phase I clinical evaluation (Hochhauser et al., 2009); cited from earlier work

SMILES	IC50 [1] [pM]	IC50 (KB (cervical carcinoma)) [pM]	maximum tolerated dose [2] [μg/m^2]
COc1cc2c(cc1OCCCOc1cc3c(cc1OC)C(=O)N1c4ccccc4C[C@H]1CN3)N=C[C@@H]1Cc3ccccc3N1C2=O [Compound 161]	30	250	
COc1cc2c(cc1OCc1cccc(COc3cc4c(cc3OC)C(=O)N3c5ccccc5C[C@H]3CN4)c1)N=C[C@@H]1Cc3ccccc3N1C2=O [Compound 150]	1	8	
COC(=O)c1cc(COc2cc3c(cc2OC)C(=O)N2c4ccccc4C[C@H]2C=N3)cc(COc2cc3c(cc2OC)C(=O)N2c4ccccc4C[C@H]2CN3)c1 [Compound 157]	1	3	
COc1cc2c(cc1OCCCCCOc1cc3c(cc1OC)C(=O)N1c4ccccc4C[C@H]1CN3)N=C[C@@H]1Cc3ccccc3CN1C2=O [Compound 123]	1	3	
COc1cc2c(cc1OCCCCCOc1cc3c(cc1OC)C(=O)N1c4ccccc4C[C@H]1CN3)N=C[C@@H]1Cc3ccccc3N1C2=O [Compound 162]	3	20	
C=C1C[C@H]2C=Nc3cc(OCCCOc4cc5c(cc4OC)C(=O)N4CC(=C)C[C@H]4C=N5)c(OC)cc3C(=O)N2C1 [SJG-136]			45
COc1cc2c(cc1OCc1cccc(COc3cc4c(cc3OC)C(=O)N3c5ccccc5C[C@H]3CN4)n1)N=C[C@@H]1Cc3ccccc3N1C2=O [Compound 159]	1	3	
COc1cc2c(cc1OCCCCCOc1cc3c(cc1OC)C(=O)N1Cc4ccccc4C[C@H]1CN3)N=C[C@@H]1Cc3ccccc3N1C2=O [Compound 108]	10	50	
COCCOCCOCCNc1cc(COc2cc3c(cc2OC)C(=O)N2c4ccccc4C[C@H]2C=N3)cc(COc2cc3c(cc2OC)C(=O)N2c4ccccc4C[C@H]2CN3)c1 [Compound 155]	2	20	
